Measured values reported in patent publication US11185100B2 (priority 2014, dated 2021).
Values joined by “and” are separate entries in the source; they are usually repeats but may differ in a detail not shown here. Equal values may be shown once. Where a name gives a salt, the structure may show the parent alone.

Assays:
T1R1/T1R3 receptor [1] = biological target: T1, T1R1/T1R3 receptor (Felis catus, UniProt E3UMS2); assay: Agonist screening of transmembrane compounds on T1R1/T1R3 in HEK293 cells (Example 8); type: cell-based, cat; conditions: for T1R1/T1R3 agonist: transmembrane compound tested at 0.01, 0.1 and 1 mM, HEK293 cells expressing T1R1/T1R3, calcium readout
Protocol: Agonist Screening Method: HEK293 cells that stably express T1R3 and inducibly express T1R1 were exposed to a transmembrane compound. Activation of the T1R1/T1R3 receptor was detected by a change in intracellular calcium levels using a calcium sensitive fluorescent dye and/or a luminescent reporter system. […] A FLIPR® Tetra or a FlexStation® 3 was used for data capture.
Each transmembrane compound was tested at concentrations of 0.01 mM, 0.1 mM, and 1 mM. […] To generate the dose response curves, the transmembrane compound was tested at concentrations of between 0.0001 mM and 1.0 mM in the presence of GMP and Ala.

T1R1/T1R3 receptor [2] = biological target: T1, T1R1/T1R3 receptor; assay: Activation of T1R1/T1R3 receptor by transmembrane compounds and nucleotide derivatives, conducted as in Examples 1, 2 and 5 (Example 7); type: cell-based, cat
Text: Methods: HEK293 cells that stably express T1R3 and inducibly express T1R1 were exposed to nucleotide derivatives alone to activate the umami receptor. Activation of the T1R1/T1R3 receptor was detected by a change in intracellular calcium levels using a calcium sensitive fluorescent dye. Cells that express T1R3 but not T1R1 were used as a control. A FLIPR® Tetra or a FlexStation® 3 was used for data capture.
Methods: HEK293 cells that stably express T1R3 and inducibly express T1R1 were exposed to nucleotide derivatives alone or in combination with one or more amino acids and/or one or more nucleotides to activate the umami receptor. Activation of the T1R1/T1R3 receptor was detected by a change in intracellular calcium levels using a calcium sensitive fluorescent dye and/or a luminescent reporter system. Cells that express T1R3 but not T1R1 were used as a control. A FLIPR® Tetra or a FlexStation® 3 was used for data capture.
Methods: HEK293 cells that stably express T1R3 and inducibly express T1R1 were exposed to transmembrane compounds alone or in combination with one or more amino acids and/or one or more nucleotides to activate the umami receptor. Activation of the T1R1/T1R3 receptor was detected by a change in intracellular calcium levels using a calcium sensitive fluorescent dye. Cells that express T1R3 but not T1R1 were used as a control. A FLIPR® Tetra or a FlexStation® 3 was used for data capture.
In each experiment, serial dilutions of up to 10 mM of the transmembrane compound were added to the T1R1/T1R3-expressing cells.

T1R1/T1R3 receptor [3] = biological target: T1, T1R1/T1R3 receptor; assay: PAM screening of transmembrane compounds with GMP and Ala on T1R1/T1R3 in HEK293 cells (Example 8); type: cell-based, cat; conditions: for T1R1/T1R3 PAM: transmembrane compound at 0.01, 0.1 and 1 mM with GMP + Ala mixtures (T1-T4), PAM if response greater than sum of compound alone and GMP+Ala alone
Text: PAM Screening Method: HEK293 cells that stably express T1R3 and inducibly express T1R1 were exposed to transmembrane compound alone or in combination with Ala and GMP to activate the umami receptor. Activation of the T1R1/T1R3 receptor was detected by a change in intracellular calcium levels using a calcium sensitive fluorescent dye and/or a luminescent reporter system. […] A FLIPR® Tetra or a FlexStation® 3 was used for data capture.
Dose response curves were generated for each transmembrane compound at concentrations of 0 (buffer only), 0.01, 0.1 and 1 mM, wherein each of the three concentrations of transmembrane compound was tested in combination with 0.03 mM GMP+100 mM Ala (T1); 0.6 mM GMP+10 mM Ala (T2); 0.1 mM GMP+60 mM Ala (T3) and 0.3 mM GMP+60 mM Ala (T4). The T4 mixture was also tested in a 2-fold dilution series (the T4(X) Concentration). In these experiments, the first test concentration was 2× (2 times) the T4 concentration. The subsequent test concentrations were 2-fold dilutions from that (1×, 0.5× etc.). This dilution series was tested with or without the addition of the test compound at a constant 0.3 mM concentration.
Activation of the umami receptor was also determined in the presence of 1 mM GMP+100 mM Ala to generate a “maximum” umami receptor activation level.

cat T1R1/T1R3 receptor [4] = biological target: T2, cat T1R1/T1R3 receptor (Felis catus, UniProt E3UMS2); assay: Activation of cat T1R1/T1R3 receptor by nucleotide derivatives alone, with alanine and/or IMP; HEK293 cells, intracellular calcium fluorescence (Example 1); type: cell-based
Text: […] Activation of the T1R1/T1R3 receptor was detected by a change in intracellular calcium levels using a calcium sensitive fluorescent dye. Cells that express T1R3 but not T1R1 were used as a control. A FLIPR® Tetra or a FlexStation® 3 was used for data capture.
The term half maximal effective concentration (EC50) refers to the concentration of a compound which induces a response halfway between the baseline and the maximum after a specified exposure time. In each experiment, serial dilutions of up to 0.1 mM, 1 mM or 10 mM of the nucleotide derivative were added to the T1R1/T1R3-expressing cells.

cat T1R1/T1R3 receptor [5] = biological target: T2, cat T1R1/T1R3 receptor; assay: cell-based; type: cell-based
Procedure, shortened: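 Umami receptor activation in HEK293 cells stably expressing T1R3 with inducible T1R1, exposed to nucleotide derivatives alone or combined with amino acids and/or nucleotides. Intracellular calcium read with a calcium-sensitive fluorescent dye and/or luminescent reporter; cells expressing T1R3 without T1R1 served as control.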

T1R1/T1R3 receptor [6] = biological target: T1, T1R1/T1R3 receptor; assay: Activation of T1R1/T1R3 receptor by transmembrane compounds alone or with alanine, IMP, GMP, phenylalanine; HEK293 cells, calcium fluorescence (Example 5); type: cell-based, cat
Procedure, shortened: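 HEK293 cells stably expressing feline T1R3 with inducible T1R1 treated with serial dilutions (up to 10 mM) of transmembrane compounds, alone or combined with amino acids and/or nucleotides. Activation read as intracellular calcium change via calcium-sensitive fluorescent dye; T1R3-only cells served as control.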

[7] = compound alone in buffer, read-out: EC50- alone
[8] = with 20 mM alanine, read-out: EC50- with Ala
[9] = EC50- with IMP (mM), with 0.2 mM IMP

## COC(=O)[C@H](Cc1ccccc1)NCc1ccccc1 [N-Benzyl-L-phenylalanine methyl ester]
T1R1/T1R3 receptor [1]
  agonist profile assessment (activation of T1R1/T1R3 by the compound alone): agonist
T1R1/T1R3 receptor [2]
  Max resp ΔF/F +Alanine (20 mM): 1.8725 ΔF/F
  Thres +Alanine (20 mM): 0.01 mM
T1R1/T1R3 receptor [2]; +IMP (0.2 mM)
  Max resp % of Ala +IMP (0.2 mM): 289.4 % of Ala
  Max resp ΔF/F +IMP (0.2 mM): 2.2500 ΔF/F
  Thres +IMP (0.2 mM): 0.003 mM
T1R1/T1R3 receptor [2]; hek293 cells
  Max resp % of IMP +Alanine (20 mM): 273.4 % of IMP
T1R1/T1R3 receptor [2]; modulation of T1R1/T1R3
  Activity: active
T1R1/T1R3 receptor [3]
  PAM profile assessment (activation of T1R1/T1R3 in the presence of GMP and Alanine): PAM activity

## C[C@H](N)C(=O)O [alanine, reference compound]
Cat T1R1/T1R3 receptor [4]; [7]
  EC50: 13.6 mM

## Nc1ncnc2c1ncn2C1OC(COP(=O)(O)O)C(OP(=O)(O)O)C1O (centres unmarked) [listing 1 of 2 here]
Cat T1R1/T1R3 receptor [4]; [7]
  EC50: > 0.03 mM
Cat T1R1/T1R3 receptor [4]; [8]
  EC50: 0.003 ± 0.0003 mM

## O=C(CN1C(=O)C(=O)N(CCc2cccs2)C1=O)c1ccccc1 [Formula 6, 1-(2-oxo-2-phenylethyl)-3-(2-(thiophen-2-yl)ethyl)imidazolidine-2,4,5-trione]
T1R1/T1R3 receptor [1]
  T1R1/T1R3 agonist: No
T1R1/T1R3 receptor [3]
  T1R1/T1R3 PAM: No

## O=C(O)[C@H](Cc1ccc(O)cc1)NCc1ccccc1 [Formula 22, N-Benzyl-L-Tyrosine]
T1R1/T1R3 receptor [1]
  T1R1/T1R3 agonist: No
T1R1/T1R3 receptor [3]
  T1R1/T1R3 PAM: No

## Nc1ncnc2c1ncn2C1OC(COP(=O)(O)O)C(OP(=O)(O)O)C1O (centres unmarked) [listing 2 of 2 here]
Cat T1R1/T1R3 receptor [4]; [9]
  EC50: > 0.01 mM
Cat T1R1/T1R3 receptor [4]; [7]
  EC50: > 0.01 mM
Cat T1R1/T1R3 receptor [4]; [8]
  EC50: > 0.01 mM

## O=c1nc[nH]c2c1ncn2C1O[C@H](COP(=O)(O)OP(=O)(O)OP(=O)(O)O)[C@@H](O)[C@H]1O (some centres unmarked) [inosine triphosphate (ITP) trisodium salt]
Cat T1R1/T1R3 receptor [4]; EC50- with Ala and IMP (mM), with 20 mM alanine and 0.2 mM IMP
  EC50: 0.03 ± 0.01 mM
Cat T1R1/T1R3 receptor [4]; [9]
  EC50: 0.02 ± 0.03 mM
Cat T1R1/T1R3 receptor [4]; [7]
  EC50: 0.05 ± 0.03 mM
Cat T1R1/T1R3 receptor [5]
  Activity: active
Cat T1R1/T1R3 receptor [5]; hek293 cells
  Max. resp. % of IMP: 25.1 % of IMP
Cat T1R1/T1R3 receptor [5]; in the presence of 20 mM alanine, read-out: EC50- with Ala
  EC50: 80 µM

## O=C(CN1C(=O)C(=O)N(Cc2ccccc2)C1=O)c1ccc(Cl)s1 [Formula 12, 1-benzyl-3-(2-(5-chlorothiophen-2-yl)-2-oxoethyl)imidazolidine-2,4,5-trione]
T1R1/T1R3 receptor [1]
  T1R1/T1R3 agonist: No
T1R1/T1R3 receptor [3]
  T1R1/T1R3 PAM: Weak PAM

## O=C(CN1C(=O)C(=O)N(CCc2cccs2)C1=O)c1cccc2ccccc12 [Formula 11, 1-(2-(naphthalen-1-yl)-2-oxoethyl)-3-(2-(thiophen-2-yl)ethyl)imidazolidine-2,4,5-trione]
T1R1/T1R3 receptor [1]
  T1R1/T1R3 agonist: No
T1R1/T1R3 receptor [3]
  T1R1/T1R3 PAM: No

## CCCC(CCC)NC(=O)c1ccc2c(c1)OCO2 [N-(heptan-4-yl)benzo[d][1,3]dioxole-5-carboxamide]
T1R1/T1R3 receptor [6]; +Alanine (20 mM)
  +Alanine (20 mM) Max resp % of IMP: 142.7 % of IMP and 118.2 % of IMP
  +Alanine (20 mM) Max resp ΔF/F: 1.7725 ΔF/F and 1.2 ΔF/F
T1R1/T1R3 receptor [6]; +Alanine (20 mM), relative to IMP
  Max resp % of IMP +Alanine (20 mM): 118.2% and 142.7%
T1R1/T1R3 receptor [6]; +IMP (0.2 mM)
  +IMP (0.2 mM) Max resp % of Ala: 119.6 % of Ala and 165.8 % of Ala
  +IMP (0.2 mM) Max resp ΔF/F: 1.4725 ΔF/F
  Max resp ΔF/F +IMP (0.2 mM): 1.393 ΔF/F and 1.473 ΔF/F
T1R1/T1R3 receptor [6]; +IMP (0.2 mM), relative to Ala
  Max resp % of Ala +IMP (0.2 mM): 165.8% and 119.6%
T1R1/T1R3 receptor [6]; Table 18, all transmembrane compounds tested, active / N/A (not active)
  Activity: active
T1R1/T1R3 receptor [6]; with phenylalanine and GMP
  ΔF/F0 of ternary mixture with phenylalanine and GMP compared to phenylalanine and GMP without the agonist: approximately 10 ×
T1R1/T1R3 receptor [1]
  agonist profile assessment (activation of T1R1/T1R3 by the compound alone): agonist
T1R1/T1R3 receptor [3]
  PAM profile assessment (activation of T1R1/T1R3 in the presence of GMP and Alanine): PAM activity

## Cc1ccc(CNC(Cc2ccccc2)C(=O)O)cc1 (centres unmarked) [Formula 23, 2-((4-methylbenzyl)amino)-3-phenylpropanoic acid]
T1R1/T1R3 receptor [1]
  T1R1/T1R3 agonist: No
T1R1/T1R3 receptor [3]
  T1R1/T1R3 PAM: No

## COc1ccccc1C(=O)CN1C(=O)C(=O)N(Cc2cccs2)C1=O [Formula 10, 1-(2-(2-methoxyphenyl)-2-oxoethyl)-3-(thiophen-2-ylmethyl)imidazolidine-2,4,5-trione]
T1R1/T1R3 receptor [1]
  T1R1/T1R3 agonist: No
T1R1/T1R3 receptor [3]
  T1R1/T1R3 PAM: No

## O=C1C(=O)N(Cc2ccccc2)C(=S)N1Cc1ccccc1 [Formula 13, 1,3-dibenzyl-2-thioxoimidazolidine-4,5-dione]
T1R1/T1R3 receptor [1]
  T1R1/T1R3 agonist: No
T1R1/T1R3 receptor [3]
  T1R1/T1R3 PAM: No

## COc1ccc(C(=O)CN2C(=O)C(=O)N(Cc3ccccc3)C2=O)c(OC)c1 [Formula 5, 1-benzyl-3-(2-(2,4-dimethoxyphenyl)-2-oxoethyl)imidazolidine-2,4,5-trione]
T1R1/T1R3 receptor [1]
  T1R1/T1R3 agonist: No
T1R1/T1R3 receptor [3]
  T1R1/T1R3 PAM: No

## Cl.N[C@@H](Cc1ccccc1)C(=O)OCc1ccccc1 [Formula 20, L-Phenylalanine benzyl ester hydrochloride]
T1R1/T1R3 receptor [1]
  T1R1/T1R3 agonist: Yes
T1R1/T1R3 receptor [3]
  T1R1/T1R3 PAM: Yes
